Laboratory results as given in ChEMBL document CHEMBL3046697, “Syntheses, antifeedant activity, and QSAR analysis of new oxa(thia)diazolyl 3(2H)-pyridazinones” (J Agric Food Chem, 2005).
Each block holds one compound with its values, some of them ahead of it.

Columns and labels:
[1] = Hydrophobicity, log P of the compound; type: physicochemical; details: octanol/water
[2] = tested on: Mythimna separata; assay: Antifeedant activity against second-instar larvae of Mythimna separata (Oriental armyworm) in compound treated leaves assessed as growth inhibition measured after 5 days by chronic growth bioassay; type: functional, organism-based; details: 120 h

- logP [1]: 2.89
SMILES: CC(C)(C)n1ncc(OCc2nnc(-c3ccccc3F)o2)c(Cl)c1=O
- EC50 ([2]; read-out: EC50): 16.8 µg/mL
- EC50 ([2]; read-out: pEC50 (converted)): 16.8 µM

SMILES: CCCCn1ncc(OCc2nnc(-c3ccc(F)cc3)o2)c(Cl)c1=O
- EC50 ([2]; read-out: EC50): 162 µg/mL
- EC50 ([2]; read-out: pEC50 (converted)): 161 µM

SMILES: CCCCn1ncc(OCc2nnc(-c3ccc(Cl)cc3)o2)c(Cl)c1=O
- EC50 ([2]; read-out: EC50): 224 µg/mL
- EC50 ([2]; read-out: pEC50 (converted)): 223 µM

SMILES: CCn1ncc(OCc2nnc(-c3ccccc3)o2)c(Cl)c1=O
- EC50 ([2]; read-out: EC50): > 300 µg/mL
- EC50 ([2]; read-out: pEC50 (converted)): > 300 µM

SMILES: CCn1ncc(OCc2nnc(-c3ccc(F)cc3)o2)c(Cl)c1=O
- EC50 ([2]; read-out: EC50): > 300 µg/mL
- EC50 ([2]; read-out: pEC50 (converted)): > 300 µM

- logP [1]: 3.06
SMILES: CC(C)(C)n1ncc(OCc2nnc(-c3c(F)c(F)c(F)c(F)c3F)o2)c(Cl)c1=O
- EC50 ([2]; read-out: EC50): 271 µg/mL
- EC50 ([2]; read-out: pEC50 (converted)): 271 µM

- logP [1]: 2.96
SMILES: CC(C)(C)n1ncc(OCc2nnc(-c3cc(F)c(F)cc3F)o2)c(Cl)c1=O
- EC50 ([2]; read-out: EC50): 75.7 µg/mL
- EC50 ([2]; read-out: pEC50 (converted)): 75.7 µM

SMILES: COc1c(F)c(F)cc(-c2nnc(COc3cnn(C(C)(C)C)c(=O)c3Cl)o2)c1F
- EC50 ([2]; read-out: EC50): > 300 µg/mL
- EC50 ([2]; read-out: pEC50 (converted)): > 300 µM

- logP [1]: 3.23
SMILES: CC(C)(C)n1ncc(OCc2nnc(-c3ccc(Cl)cc3F)o2)c(Cl)c1=O
- EC50 ([2]; read-out: EC50): 10.4 µg/mL
- EC50 ([2]; read-out: pEC50 (converted)): 10.4 µM

- logP [1]: 3.18
SMILES: CC(C)(C)n1ncc(OCc2nnc(-c3cc(F)c(F)c(F)c3F)o2)c(Cl)c1=O
- EC50 ([2]; read-out: EC50): 241 µg/mL
- EC50 ([2]; read-out: pEC50 (converted)): 240 µM

- logP [1]: 3.66
SMILES: CC(C)(C)n1ncc(OCc2nnc(-c3ccc(C(F)(F)F)cc3)o2)c(Cl)c1=O
- EC50 ([2]; read-out: EC50): 34.1 µg/mL
- EC50 ([2]; read-out: pEC50 (converted)): 33.8 µM

SMILES: Cc1nnc(COc2cnn(C(C)(C)C)c(=O)c2Cl)o1
- EC50 ([2]; read-out: EC50): > 300 µg/mL
- EC50 ([2]; read-out: pEC50 (converted)): > 300 µM

SMILES: CC(C)(C)n1ncc(OCc2nnc(-c3ccco3)o2)c(Cl)c1=O
- EC50 ([2]; read-out: EC50): > 300 µg/mL
- EC50 ([2]; read-out: pEC50 (converted)): > 300 µM

SMILES: CC(C)(C)n1ncc(OCc2nnc(-c3cccs3)o2)c(Cl)c1=O
- EC50 ([2]; read-out: EC50): > 300 µg/mL
- EC50 ([2]; read-out: pEC50 (converted)): > 300 µM

SMILES: O=c1c(Cl)c(OCc2nnc(-c3ccccc3)o2)cnn1-c1ccccc1
- EC50 ([2]; read-out: EC50): 91.5 µg/mL
- EC50 ([2]; read-out: pEC50 (converted)): 91.4 µM

SMILES: CCCCn1ncc(OCc2nnc(-c3ccccc3)o2)c(Cl)c1=O
- EC50 ([2]; read-out: EC50): > 300 µg/mL
- EC50 ([2]; read-out: pEC50 (converted)): > 300 µM

- logP [1]: 3.36
SMILES: CC(C)(C)n1ncc(OCc2nnc(-c3cc(F)c(Cl)cc3Cl)o2)c(Cl)c1=O
- EC50 ([2]; read-out: EC50): 23.1 µg/mL
- EC50 ([2]; read-out: pEC50 (converted)): 23.1 µM

SMILES: CC(C)(C)n1ncc(SCc2nnc(-c3ccccc3)o2)c(Cl)c1=O
- EC50 ([2]; read-out: EC50): > 300 µg/mL
- EC50 ([2]; read-out: pEC50 (converted)): > 300 µM

SMILES: CC(C)(C)n1ncc(SCc2nnc(-c3ccc(F)cc3)o2)c(Cl)c1=O
- EC50 ([2]; read-out: EC50): 150 µg/mL
- EC50 ([2]; read-out: pEC50 (converted)): 151 µM

SMILES: CC(C)(C)n1ncc(SCc2nnc(-c3cccc(F)c3)o2)c(Cl)c1=O
- EC50 ([2]; read-out: EC50): 243 µg/mL
- EC50 ([2]; read-out: pEC50 (converted)): 243 µM

SMILES: CC(C)(C)n1ncc(SCc2nnc(-c3ccccc3F)o2)c(Cl)c1=O
- EC50 ([2]; read-out: EC50): 269 µg/mL
- EC50 ([2]; read-out: pEC50 (converted)): 270 µM

SMILES: CC(C)(C)n1ncc(SCc2nnc(-c3ccc(Cl)cc3)o2)c(Cl)c1=O
- EC50 ([2]; read-out: EC50): 180 µg/mL
- EC50 ([2]; read-out: pEC50 (converted)): 180 µM

SMILES: Cc1cc(C)cc(-c2nnc(CSc3cnn(C(C)(C)C)c(=O)c3Cl)o2)c1
- EC50 ([2]; read-out: EC50): > 300 µg/mL
- EC50 ([2]; read-out: pEC50 (converted)): > 300 µM

SMILES: Cc1cccc(-c2nnc(CSc3cnn(C(C)(C)C)c(=O)c3Cl)o2)c1
- EC50 ([2]; read-out: EC50): > 300 µg/mL
- EC50 ([2]; read-out: pEC50 (converted)): > 300 µM

SMILES: CC(C)(C)n1ncc(SCc2nnc(-c3ccc([N+](=O)[O-])cc3)o2)c(Cl)c1=O
- EC50 ([2]; read-out: EC50): > 300 µg/mL
- EC50 ([2]; read-out: pEC50 (converted)): > 300 µM

- logP [1]: 3.21
SMILES: CC(C)(C)n1ncc(OCc2nnc(-c3ccc(Br)cc3)o2)c(Cl)c1=O
- EC50 ([2]; read-out: EC50): 21.4 µg/mL
- EC50 ([2]; read-out: pEC50 (converted)): 21.4 µM

- logP [1]: 3.52
SMILES: CC(C)(C)n1ncc(OCc2nnc(-c3ccc(Cl)cc3Cl)o2)c(Cl)c1=O
- EC50 ([2]; read-out: EC50): 27.8 µg/mL
- EC50 ([2]; read-out: pEC50 (converted)): 27.8 µM

- logP [1]: 3.19
SMILES: CC(C)(C)n1ncc(OCc2nnc(-c3ccccc3Cl)o2)c(Cl)c1=O
- EC50 ([2]; read-out: EC50): 61.2 µg/mL
- EC50 ([2]; read-out: pEC50 (converted)): 61.2 µM

SMILES: CC(C)(C)n1ncc(OCc2nnc(-c3ccccc3)s2)c(Cl)c1=O
- EC50 ([2]; read-out: EC50): 200 µg/mL
- EC50 ([2]; read-out: pEC50 (converted)): 200 µM

SMILES: CC(C)(C)n1ncc(OCc2nnc(-c3ccc(F)cc3)s2)c(Cl)c1=O
- EC50 ([2]; read-out: EC50): 21.5 µg/mL
- EC50 ([2]; read-out: pEC50 (converted)): 21.5 µM

SMILES: CC(C)(C)n1ncc(OCc2nnc(-c3ccccc3F)s2)c(Cl)c1=O
- EC50 ([2]; read-out: EC50): 121 µg/mL
- EC50 ([2]; read-out: pEC50 (converted)): 121 µM

SMILES: CC(C)(C)n1ncc(OCc2nnc(-c3ccc(Cl)cc3)s2)c(Cl)c1=O
- EC50 ([2]; read-out: EC50): 106 µg/mL
- EC50 ([2]; read-out: pEC50 (converted)): 106 µM

SMILES: CC(C)(C)n1ncc(OCc2nnc(-c3ccc(Cl)cc3Cl)s2)c(Cl)c1=O
- EC50 ([2]; read-out: EC50): 62.2 µg/mL
- EC50 ([2]; read-out: pEC50 (converted)): 62.2 µM

SMILES: CC(C)(C)n1ncc(OCc2nnc(-c3cc(F)c(Cl)cc3Cl)s2)c(Cl)c1=O
- EC50 ([2]; read-out: EC50): 67.1 µg/mL
- EC50 ([2]; read-out: pEC50 (converted)): 67.1 µM

SMILES: Cc1cccc(-c2nnc(COc3cnn(C(C)(C)C)c(=O)c3Cl)s2)c1
- EC50 ([2]; read-out: EC50): > 300 µg/mL
- EC50 ([2]; read-out: pEC50 (converted)): > 300 µM

SMILES: Cc1cc(C)cc(-c2nnc(COc3cnn(C(C)(C)C)c(=O)c3Cl)s2)c1
- EC50 ([2]; read-out: EC50): > 300 µg/mL
- EC50 ([2]; read-out: pEC50 (converted)): > 300 µM

- logP [1]: 2.75
SMILES: CC(C)(C)n1ncc(OCc2nnc(-c3c(F)cccc3F)o2)c(Cl)c1=O
- EC50 ([2]; read-out: EC50): 45.4 µg/mL
- EC50 ([2]; read-out: pEC50 (converted)): 45.4 µM

SMILES: CC(C)(C)n1ncc(OCc2nnc(-c3cc(F)c(Cl)c([N+](=O)[O-])c3Cl)o2)c(Cl)c1=O
- EC50 ([2]; read-out: EC50): > 300 µg/mL
- EC50 ([2]; read-out: pEC50 (converted)): > 300 µM

- logP [1]: 2.95
SMILES: CC(C)(C)n1ncc(OCc2nnc(-c3ccccc3)o2)c(Cl)c1=O
- EC50 ([2]; read-out: EC50): 12.2 µg/mL
- EC50 ([2]; read-out: pEC50 (converted)): 12.2 µM

SMILES: CC(C)(C)n1ncc(OCc2nnc(-c3ccc([N+](=O)[O-])cc3)o2)c(Cl)c1=O
- EC50 ([2]; read-out: EC50): > 300 µg/mL
- EC50 ([2]; read-out: pEC50 (converted)): > 300 µM

- logP [1]: 3.02
SMILES: Cc1cccc(-c2nnc(COc3cnn(C(C)(C)C)c(=O)c3Cl)o2)c1
- EC50 ([2]; read-out: EC50): 116 µg/mL
- EC50 ([2]; read-out: pEC50 (converted)): 116 µM

SMILES: Cc1cc(C)cc(-c2nnc(COc3cnn(C(C)(C)C)c(=O)c3Cl)o2)c1
- EC50 ([2]; read-out: EC50): > 300 µg/mL
- EC50 ([2]; read-out: pEC50 (converted)): > 300 µM

- logP [1]: 3.01
SMILES: Cc1ccc(-c2nnc(COc3cnn(C(C)(C)C)c(=O)c3Cl)o2)cc1
- EC50 ([2]; read-out: EC50): 19.9 µg/mL
- EC50 ([2]; read-out: pEC50 (converted)): 19.9 µM

- logP [1]: 2.69
SMILES: CC(C)(C)n1ncc(OCc2nnc(-c3ccc(F)cc3)o2)c(Cl)c1=O
- EC50 ([2]; read-out: EC50): 5.2 µg/mL
- EC50 ([2]; read-out: pEC50 (converted)): 5.2 µM

- logP [1]: 3.52
SMILES: CCc1ccc(-c2nnc(COc3cnn(C(C)(C)C)c(=O)c3Cl)o2)cc1
- EC50 ([2]; read-out: EC50): 14.5 µg/mL
- EC50 ([2]; read-out: pEC50 (converted)): 14.5 µM

- logP [1]: 3.09
SMILES: CC(C)(C)n1ncc(OCc2nnc(-c3ccc(Cl)cc3)o2)c(Cl)c1=O
- EC50 ([2]; read-out: EC50): 1.9 µg/mL
- EC50 ([2]; read-out: pEC50 (converted)): 1.9 µM

- logP [1]: 3.52
SMILES: COc1ccc(-c2nnc(COc3cnn(C(C)(C)C)c(=O)c3Cl)o2)cc1
- EC50 ([2]; read-out: EC50): 17.7 µg/mL
- EC50 ([2]; read-out: pEC50 (converted)): 17.7 µM

- logP [1]: 2.69
SMILES: CC(C)(C)n1ncc(OCc2nnc(-c3cccc(F)c3)o2)c(Cl)c1=O
- EC50 ([2]; read-out: EC50): 7.1 µg/mL
- EC50 ([2]; read-out: pEC50 (converted)): 7.1 µM

SMILES: C/C=C(\C)C(=O)O[C@H]1C[C@@H](OC(C)=O)[C@@]2(C(=O)OC)CO[C@H]3[C@@H](O)[C@@](C)([C@]45O[C@@]4(C)[C@@H]4C[C@H]5O[C@@H]5OC=C[C@@]54O)[C@H]4[C@]1(CO[C@]4(O)C(=O)OC)[C@@H]32 [AZADIRACHTIN A]
- EC50 ([2]; read-out: EC50): 0.58 µg/mL
- EC50 ([2]; read-out: pEC50 (converted)): 0.579 µM
